Measurements from article PMC10779433, “Bidirectional Allosteric Coupling between PIP2 Binding and the Pore of the Oncochannel TRPV6” (International Journal of Molecular Sciences, 2024).
Residues, ends and D or L forms follow the SMILES beside them. *: point of attachment. Palmitoyl = CCCCCCCCCCCCCCCC(=O)*

How the values were obtained:
TRPV6 D580K [1] = test system: TRPV6 D580K; design: method as in PMID 33246965; conditions: HEK293 cells; 0.1 μM and 10 μM cis-22a; Figure 5B; ref [47]; cited from earlier work
TRPV6 W583F [2] = test system: TRPV6 W583F; design: method as in PMID 33246965; conditions: ref [47], cited from earlier work
TRPV6 R589A = test: NFAT screen, TRPV6 R589A; assay type: cell-based, human; conditions: HEK293 cells; 5 μM cis-22a, 2 h; same for solvent control
Method: (§1) N-terminally TagRFP-labeled human TRPV6 (725 aa) was kindly provided by R. Bhardwaj and M. Hediger (University of Bern, Bern, Switzerland). This variant is translated from the first ATG codon and thus deviates from the non-ATG-initiated protein which is expressed in vivo (accession number NM_018646.6) by lacking 40 amino acids of the very N-terminus. For N-terminal labeling with EYFP, TRPV6 was cloned into pEYFP-C1 (Clontech) via EcoRI and SacII restriction sites. […]
(§2) After incubation, cover slips were carefully rinsed with phenol red-free DMEM supplemented with the compound and dosage corresponding to the previous incubation, which was then also present during imaging. […] Subcellular NFAT localization of TRPV6 expressing cells was again monitored on an Axiovert 135 inverted microscope (Zeiss, Oberkochen, Germany), as described in more detail before. […] Images were analyzed using Matlab2018a, differentiating between three cell populations based on the ratio of CFP emission intensity originating from the nucleus and the cytosol, similar to Schober et al. (2019).

TRPV6 K484A = test: NFAT screen, TRPV6 K484A; assay type: cell-based, human; conditions: HEK293 cells; 5 μM cis-22a, 2 h, vs DMSO
Method: as §1, §2

TRPV6 W593A = test: NFAT screen, TRPV6 W593A; assay type: cell-based, human; conditions: HEK293 cells; 5 μM cis-22a, 2 h
Method: as §1, §2

TRPV6 W583F [3] = test: NFAT screen, TRPV6 W583F; assay type: cell-based, human; conditions: HEK293 cells; 5 μM cis-22a, 2 h, vs DMSO
Method: as §1, §2

TRPV6 D580K [4] = test: Whole-cell patch clamp, TRPV6 D580K; assay type: cell-based, human; conditions: HEK293 cells, 10 μM pal-PIP2 peptide, Figure 5C (substitution reduces the inhibition)
Description: (§3) N-terminally TagRFP-labeled human TRPV6 (725 aa) was kindly provided by R. Bhardwaj and M. Hediger (University of Bern, Bern, Switzerland). This variant is translated from the first ATG codon and thus deviates from the non-ATG-initiated protein which is expressed in vivo (accession number NM_018646.6) by lacking 40 amino acids of the very N-terminus. For N-terminal labeling with EYFP, TRPV6 was cloned into pEYFP-C1 (Clontech) via EcoRI and SacII restriction sites. Mutations (F468A, R470A, F472A, K484A/Q, G488R, R492A/Q, I575A, G579A, D580A/K, H582A, W583A/F, H587A, R589A, W593A, R632A/Q, R470A, W583F) were introduced using the QuickChange XL site-directed mutagenesis kit (Stratagene, San Diego, CA, USA) and Pfu DNA Polymerase (Promega, Madison, WI, USA). pTagRFP-hTRPV6 I575A was kindly provided by the lab of M. Hediger (University of Bern, Bern, Switzerland). Forward and reverse primers for site-directed mutagenesis were synthesized by Eurofins genomics GmbH (Wien, Vienna, Austria). Intactness of the constructs in terms of sequence was confirmed by sequencing (Microsynth Austria GmbH, Wien, Vienna, Austria; Eurofins genomics GmbH, Wien, Vienna, Austria). […]
(§4) Electrophysiological experiments were performed at 20 °C to 24 °C in whole-cell recording configurations of the patch clamp technique. […] The liquid junction potential was determined as 12 mV; the voltages were not adjusted. […]

TRPV6 R470A = test: Whole-cell patch clamp, TRPV6 R470A; assay type: cell-based, human; conditions: HEK293 cells; 10 μM pal-PIP2 peptide; p < 0.05; Figure 4D
Description: as §3, §4

TRPV6 I575A = test: Whole-cell patch clamp, TRPV6 I575A; assay type: cell-based, human; conditions: HEK293 cells, 10 μM pal-PIP2 peptide, Figure 5C (substitution reduces the inhibition)
Description: as §3, §4

TRPV6 G488R = test: Fura-2 Ca2+ imaging, TRPV6 G488R; assay type: cell-based, human; conditions: HEK293 cells; 20 μM pal-PIP2 peptide; 2 mM Ca2+; Figure 2A
TRPV6 W583F [5] = test: Whole-cell patch clamp, TRPV6 W583F; assay type: cell-based, human; conditions: HEK293 cells, 10 μM pal-PIP2 peptide, Figure 5C
Description: as §3, §4

Structure (SMILES)	response to cis-22a vs TRPV6 WT (TRPV6 D580K [1])	response to cis-22a vs TRPV6 WT (TRPV6 W583F [2]; HEK293 cells, 0.1 μM and 10 μM cis-22a, Figure 5B)	IC50 (TRPV6 W583F [2]; TRPV6 W583F) [µM]	nuclear targeting of NFAT (TRPV6 R589A)	reduction of nuclear NFAT localization (TRPV6 K484A)	reduction in nuclear NFAT (TRPV6 W593A)	change of nuclear NFAT localization (TRPV6 W583F [3])	inhibitory effect of pal-PIP2 peptide vs WT (TRPV6 D580K [4])	sensitivity to peptide-based PIP2 sequestration vs WT (TRPV6 R470A)	inhibitory effect of pal-PIP2 peptide vs WT (TRPV6 I575A)	reduction of intracellular Ca2+ level (TRPV6 G488R)	sensitivity to peptide-based PIP2 sequestration vs WT (TRPV6 W583F [5])
Cc1cccc(C2CCC(N3CCN(c4cccnc4)CC3)CC2)c1.O=C(O)C(F)(F)F (stereo not drawn) [cis-22a]	significantly reduced response	significantly reduced response	~6.19	almost absent	failed to significantly reduce NFAT nuclear localization	lower yet significant decrease in the proportion of cells showing NFAT in the nucleus	not significantly changed	–	–	–	–	–
CCCCCCCCCCCCCCCC(=O)N[C@@H](Cc1c[nH]cn1)C(=O)N[C@@H](CCCNC(=N)N)C(=O)N[C@@H](CCC(N)=O)C(=O)N[C@@H](CCCCN)C(=O)N[C@@H](Cc1c[nH]cn1)C(=O)N[C@@H](Cc1ccccc1)C(=O)N[C@@H](CCC(=O)O)C(=O)N[C@@H](CCCCN)C(=O)N[C@@H](CCCNC(=N)N)C(=O)N[C@@H](CCCNC(=N)N)C(N)=O [pal-PIP2 peptide] (Palmitoyl-HRQKHFEKRR-NH2)	–	–	–	–	–	–	–	interfered with the inhibitory effect of the pal-PIP2 peptide	significantly reduced sensitivity	interfered with the inhibitory effect of the pal-PIP2 peptide	~ 2%	not changed compared to the wildtype control
